Entries after “also recorded” stand apart in the source; their conditions may differ.
What was measured:
Assay type in all cases: cell-based
[1] = test system: mGluR1α; experiment: Glutamate/NMDA-induced C-terminal truncation of mGluR1α in cultured cortical neurons (immunoblot); details: 100 μM glutamate
From the text: (§1) Total cell lysates were separated by SDS-PAGE and probed with an antibody against the carboxyl terminus (residue 1142-1160) of mGluR1α. […] Total cell lysates were probed with an anti-myc antibody. […] Total cell lysates were probed with antibodies against mGluR5, G1uR2/3 and VGluT1 respectively.
Total cell lysate was collected immediately after treatment and subjected to SDS-PAGE and immunoblotting with an antibody against the carboxyl terminus (residues 1142-1160) of mGluR1α (FIG. 2A). […] Neurons were transfected with a calcium phosphate precipitation method modified for high transfection rate (Jian et al., Gene Ther 11:1301-1311, 2004).
Cortical neurons were treated with NMDA at the indicated concentrations for 1 h or treated with NMDA (10 μM) for the indicated times. Total cell lysates were separated by SDS-PAGE and probed with antibodies against mGluR1α1142-1160, Results were normalized over control values and are means±s.e.m. of 4 experiments.
To determine whether activation of mGluR1α itself was required for the truncation, two distinct mGluR1α antagonists were applied.
To further characterize NMDA-induced mGluR1α truncation, the concentration- and time-dependencies of the effects of NMDA were studied. Cortical neurons were first incubated with different concentrations of NMDA for a fixed period of time (1 hour) (FIG. 3F). […] In a following experiment, cortical neurons were incubated with 10 μM NMDA for different durations ranging from 1 to 60 min (FIG. 3G).
Cortical neurons were treated with NMDA (10 μM, 1 h). Total cell lysates were separated by SDS-PAGE and probed with antibodies against spectrin and mGluR1α1142-1160, respectively. Only the degradation bands of spectrin (spectrin DB, at ˜145 KD) are shown. […] In FIG. 4C, purified myc-mGluR1α was digested with μ-calpain at the indicated concentrations (U/ml) for 30 min. The digested material was processed for SDS-PAGE and subjected to silver staining or immunoblots with anti-myc or anti-mGluR1α1142-1160 antibodies. […] The 1st lane was the myc-mGluR1α immunoprecipitated from 293 cells; the 2nd and 3rd lanes were immunoprecipitated myc-mGluR1α digested with indicated concentration of calpain. […] FIG. 4F is the alignment of mGluR1 (902-941) and mGluR5 (889-927) surrounding the calpain cleavage site.
In this set of experiments, we determined which protease(s) mediated NMDA-induced truncation of mGluR1α. […] Cortical neurons were pretreated with a calpain inhibitor, the cell-permeable calpain-inhibitor III, or the caspase inhibitor cpm-VAD-CHO for 2 hours and then incubated in the absence or presence of 100 µM NMDA for 1 hour. […] To further confirm calpain activation by NMDA under our experimental conditions, we determined the levels of the calpain-specific spectrin degradation fragments.

[2] = test system: cortical neurons; experiment: Glutamate toxicity in transfected GFP-expressing cortical neurons (EthD-1 staining); details: 25 μM glutamate 1 hour, 12 hours later
From the text: In FIGS. 8a and b, cortical neurons were co-transfected with green fluorescent protein (GFP) and vector DNA, myc-mGluR1α or myc-mGluR1α936Δ, respectively. […] Twelve hours later, neurons were stained with EthD-1 to label dead cells. Arrowheads in FIG. 8a indicate EthD-1 positive GFP-expressing neurons. * p<0.05. FIGS. 8c and d are representative photos and bar graphs showing differential roles of endogenous mGluR1 in neuronal toxicity before and after NMDA-induced truncation. Cortical neurons were treated as indicated and were stained with EthD-1 (for dead cells) and calcein AM (for live cells) 24 hours later. * p<0.001.
The downstream signaling pathways of mGluR1α, including release of intracellular calcium and activation of P13K-Akt, are both important for excitotoxicity. Therefore, we postulated that NMDA-induced truncation would alter the role of mGluR1α in neuronal toxicity. To test this possibility, we first co-transfected neurons with GFP and a control vector, wild-type mGluR1α or truncated mGluR1α respectively. […] Twelve hours after treatment, neurons were stained with 0.5 μM EthD-1 for 10 minutes to label dead cells. The numbers of GFP-expressing neurons and EthD-1 positive GFP-expressing neurons on each 18×18 mm coverslip were counted to calculate the percentage of dead cells. […] In neurons co-transfected with control vector, 35% (n=9, on average, there were 405 GFP-expressing neurons counted on each coverslip) of GFP-expressing neurons were positive for EthD-1 staining and therefore had died. In neurons co-transfected with wild-type mGluR1α, only 15% of neurons (n=8, in average, there were 428 GFP-expressing neurons counted on each coverslip) were EthD-1 positive, an effect that was statistically different from that in neurons co-transfected with control vector (p<0.01, Student's t-test). […] Therefore it was difficult to determine the exact location of cell bodies and the live/dead ratios in those neurons.

[3] = test system: mGluR5; experiment: mGluR5 levels in cortical neurons after glutamate (immunoblot); details: 100 μM glutamate, 60 min
From the text: as §1

[4] = test system: vesicular glutamate transporter (vGluT1); experiment: vGluT1 levels in cortical neurons after glutamate (immunoblot); details: 100 μM glutamate, 60 min
From the text: as §1
To test for the specificity of glutamate-mediated truncation of mGluR1α, immunoblots were also probed with an antibody against mGluR5, another member of group I mGluRs, which shares a high similarity with mGluR1α.

N[C@@H](CCC(=O)O)C(=O)O [glutamate]
time at which mGluR1α truncation was apparent after glutamate treatment [1]: 1 min | levels of native mGluR1α ([1]; 60 min (1 hour)): almost completely disappeared; also recorded: significant reduction | EthD-1 positive GFP-expressing neurons (dead cells) ([2]; co-transfected with control vector): 35% | EthD-1 positive GFP-expressing neurons (dead cells) ([2]; co-transfected with mGluR1α936Δ): 59% | EthD-1 positive GFP-expressing neurons (dead cells) ([2]; co-transfected with wild-type mGluR1α): 15% | levels of mGluR5 [3]: not significantly altered | changes to vGluT1 [4]: no significant changes
